Results reported in ChEMBL document CHEMBL1132934, “Multivariate data analysis using D-optimal designs, partial least squares, and response surface modeling: A directional approach for the analysis of farnesyltransferase inhibitors” (J Med Chem, 2000).
Each block holds one compound with its values, some of them ahead of it. The source made the active and inactive calls. The rule behind the calls is not given here.

Legend:
[1] = molecular target: T1, Protein farnesyltransferase (Homo sapiens, UniProt P49354+P49356); test: Inhibition of farnesyltransferase by Ras/SPA assay; assay type: protein-complex assay
[2] = Binding affinity against Ras SPA enzyme
HCT-116 [3] = test: (§1) […] inhibition of cellular activity in HCT116 colony formation assay; assay type: functional; conditions: Homo sapiens
HCT-116 [4] = test: […] inhibition of cellular activity in HCT116 colony formation assay; AI means almost inactive; assay type: functional; conditions: Homo sapiens
[5] = molecular target: T1, Protein farnesyltransferase; test: Inhibition of Farnesyltransferase; assay type: protein-complex assay
HCT-116 [6] = test: […] inhibition of cellular activity in HCT116 colony formation assay; CA means cytostatic activity; assay type: functional; conditions: Homo sapiens
[7] = Binding affinity against Ras protein
HCT-116 [8] = test: as §1; assay type: functional, Homo sapiens

Ki [1]: 420 nM
Structure (SMILES): C=C(C(=O)N1C[C@H]2[C@@]3(c4ccc5c(c4)CCO5)CC[C@H](c4ccccc43)[C@@]2(C(=O)O)C1)c1ccccc1OC

Ki [2]: 2450 nM
Structure (SMILES): COc1ccccc1CC(=O)N1C[C@H]2[C@@]3(c4ccccc4)CC[C@H](c4ccccc43)[C@@]2(C(=O)NN)C1

Structure (SMILES): C=C(C(=O)N1C[C@H]2[C@@]3(c4ccccc4)CC[C@H](c4ccccc43)[C@@]2(C(=O)O)C1)c1ccccc1OC (racemic)
Ki [1]: 25 nM
IC50 (HCT-116 [3]): 720 nM
AI (HCT-116 [4]): inactive

Structure (SMILES): COc1ccccc1CC(=O)N1C[C@H]2[C@@]3(c4ccccc4)CC[C@H](c4c(O)cccc43)[C@@]2(C(=O)O)C1
Ki [1]: 50000 nM

IC50 [5]: 8 nM
IC50 (HCT-116 [3]): 45 nM
Structure (SMILES): C=C(C(=O)N1C[C@H]2[C@@]3(c4ccc(C)cc4)CC[C@H](c4ccccc43)[C@@]2(C(=O)O)C1)c1ccccc1OC (racemic)
CA (HCT-116 [6]): cytostatic activity

Ki [2]: 2080 nM
Structure (SMILES): COc1ccccc1CC(=O)N1C[C@H]2[C@@]3(c4ccccc4)CC[C@H](c4ccccc43)[C@@]2(C(=O)N[C@H](C)c2ccccc2)C1

Structure (SMILES): COc1ccccc1CC(=O)N1C[C@H]2[C@@]3(c4ccccc4)CC[C@](O)(c4ccccc43)[C@@]2(C(=O)O)C1
Ki [1]: 250 nM

Structure (SMILES): COCCCC(=O)N1C[C@H]2[C@@]3(c4ccccc4)CC[C@H](c4ccccc43)[C@@]2(C(=O)O)C1
Ki [2]: 100000 nM

Ki [2]: 100000 nM
Structure (SMILES): COc1ccccc1CC(=O)N1C[C@H]2[C@@]3(c4ccccc4)CC[C@H](c4ccccc43)[C@@]2(NC(=O)OCc2ccccc2)C1

Ki [1]: 32000 nM
Ki [7]: 32000 nM
Structure (SMILES): O=C(Cc1ccccc1OCc1ccccc1)N1C[C@H]2[C@@]3(c4ccccc4)CC[C@H](c4ccccc43)[C@@]2(C(=O)O)C1

Ki [1]: 420 nM
Structure (SMILES): CONC(=O)[C@]12CN(C(=O)Cc3ccccc3OC)C[C@H]1[C@@]1(c3ccccc3)CC[C@@H]2c2ccccc21

Structure (SMILES): COc1ccccc1CC(=O)N1C[C@H]2[C@@]3(c4ccccc4)CC[C@H](c4ccccc43)[C@@]2(C(=O)O)C1
Ki [1]: 140 nM

IC50 (HCT-116 [8]): 59 nM
Structure (SMILES): C=C(C(=O)N1C[C@H]2[C@@]3(c4ccc(Br)cc4)CC[C@H](c4ccccc43)[C@@]2(C(=O)O)C1)c1ccccc1OC

Ki [1]: 738 nM
Structure (SMILES): COc1ccccc1CC(=O)N1C[C@H]2[C@@]3(c4ccccc4)CC[C@H](c4ccccc43)[C@@]2(C(=O)NCC(=O)O)C1

Structure (SMILES): COc1ccccc1CC(=O)N1C[C@H]2[C@@]3(c4ccccc4)CC[C@H](c4ccccc43)[C@@]2(C(=O)O)C1 (racemic)
IC50 [5]: 200 nM
IC50 (HCT-116 [3]): > 10000 nM

Ki [1]: 40000 nM
Structure (SMILES): COc1ccccc1CC(=O)N1C[C@@H]2[C@@H]3CC[C@@](c4ccccc4)(c4ccccc43)[C@@H]2C1

Ki [1]: 25500 nM
Structure (SMILES): C=C(C(=O)N1C[C@H]2[C@@]3(c4ccc(OCC(=O)O)cc4)CC[C@H](c4ccccc43)[C@@]2(C(=O)O)C1)c1ccccc1OC
